We go through 22 compounds from US20260297042A1, “BIARYLAMIDE DERIVATIVES AND THEIR USE AS PKMYT1 INHIBITORS” (CANCER RESEARCH TECHNOLOGY LIMITED, priority 2023, published 2026).

The target in one experiment is T1, Human PKMYT1 (Homo sapiens, UniProt Q99640).
T1 construct: Human PKMYT1 75-362 was cloned as a TEV cleavable 6xHis fusion; 6xHis (TEV cleavable) (cleaved yes); made in house; host or cells: bacterial cells
T1 sequence (Q99640 75-362): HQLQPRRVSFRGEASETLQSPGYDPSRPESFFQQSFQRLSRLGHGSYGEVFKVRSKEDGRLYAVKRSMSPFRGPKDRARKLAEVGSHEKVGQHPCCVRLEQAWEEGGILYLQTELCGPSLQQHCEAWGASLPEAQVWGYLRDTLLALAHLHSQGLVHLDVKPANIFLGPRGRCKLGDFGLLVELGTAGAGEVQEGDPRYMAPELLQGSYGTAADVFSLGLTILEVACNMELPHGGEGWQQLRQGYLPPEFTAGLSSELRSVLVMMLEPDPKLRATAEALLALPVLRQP
The experiment can be described thus: PKMYT1 biochemical ADP-Glo enzymatic assay. To be noted: PKMYT1 kinase domain 15 nM; ADP-Glo; banded values. In outline: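 Measures inhibition of PKMYT1 autonomous ATP hydrolysis: bacterially expressed human enzyme (75-362, tag cleaved) at 15 nM with 500 µM ATP for 60 min at 26 °C, then ADP-Glo Max detection. IC50s accepted only when replicates agreed within 3-fold and curve r2 exceeded 0.9.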
On the technique in general: In ADP-Glo the light output rises with the ADP produced.

The target in another experiment is T2, WEE1 (Homo sapiens, UniProt P30291).
T2 construct: purchased Thermo Fisher PR7373A
T2 sequence (P30291 whole entry): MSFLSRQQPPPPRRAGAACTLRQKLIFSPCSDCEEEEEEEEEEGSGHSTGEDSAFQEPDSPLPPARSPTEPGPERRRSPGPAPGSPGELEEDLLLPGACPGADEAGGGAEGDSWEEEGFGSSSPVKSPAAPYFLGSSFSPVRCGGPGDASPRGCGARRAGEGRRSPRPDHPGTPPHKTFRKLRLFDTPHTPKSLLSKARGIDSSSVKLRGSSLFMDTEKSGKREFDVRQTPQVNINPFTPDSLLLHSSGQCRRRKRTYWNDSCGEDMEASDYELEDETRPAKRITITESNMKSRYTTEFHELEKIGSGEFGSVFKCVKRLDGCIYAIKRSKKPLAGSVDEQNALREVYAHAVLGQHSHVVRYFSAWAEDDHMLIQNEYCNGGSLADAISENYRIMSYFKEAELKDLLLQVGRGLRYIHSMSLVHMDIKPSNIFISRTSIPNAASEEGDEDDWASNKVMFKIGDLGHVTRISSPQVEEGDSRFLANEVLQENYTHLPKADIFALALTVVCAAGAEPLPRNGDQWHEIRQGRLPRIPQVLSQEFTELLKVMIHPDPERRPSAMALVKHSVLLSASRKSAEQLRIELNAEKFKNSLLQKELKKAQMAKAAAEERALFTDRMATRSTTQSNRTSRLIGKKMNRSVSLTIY
In words: Selectivity versus WEE1 assay (ADP-Glo enzymatic assay). In kind it is biochemical. To be noted: for IC50: WEE1 15 nM, ADP-Glo, banded values; for PKMYT1 vs. WEE1 selectivity: fold difference in selectivity for PKMYT1 over WEE1, banded. An outline of the steps: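 Same format as the PKMYT1 assay: WEE1 at 15 nM final with 30 µM ATP, 60 min at 26° C, ADP-Glo luminescence detection, IC50 by dose-response fitting.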

Structures can show the parent of a compound that is named as a salt.

In general, IC50 refers to the concentration needed to halve the response being measured. Read a high IC50 as lower potency. `Cc1ccc(O)c(C)c1NC(=O)c1cnc(Nc2cnn(C)c2)s1` [BAA-536, N-(3-hydroxy-2,6-dimethylphenyl)-2-((1-methyl-1H-pyrazol-4-yl)amino)thiazole-5-carboxamide hydrochloride] displayed an IC50 against Human PKMYT1 of 50 to 1000 nM. Moreover, at WEE1, the IC50 fell in the range of 1000 to 11000 nM and the “PKMYT1 vs. WEE1 selectivity” value was “X (100-<1000 fold)”.
The like results for `Cc1ccc(O)c(C)c1NC(=O)c1cnc(Nc2cc(C(=O)N3CCOCC3)n(C)n2)s1` [BAA-537, N-(3-hydroxy-2,6-dimethylphenyl)-2-((1-methyl-5-(morpholine-4-carbonyl)-1H-pyrazol-3-yl)amino)thiazole-5-carboxamide] were, in that order, 50 to 1000 nM, 1000 to 11000 nM and “W (10-<100 fold)”.
The like results for `COC1CCN(C(=O)Cn2cc(C)c(Nc3ncc(C(=O)Nc4c(C)ccc(O)c4C)s3)n2)C1` (stereo not drawn) [BAA-538, N-(3-hydroxy-2,6-dimethylphenyl)-2-((1-(2-(3-methoxypyrrolidin-1-yl)-2-oxoethyl)-4-methyl-1H-pyrazol-3-yl)amino)thiazole-5-carboxamide] were, in that order, under 50 nM, 1000 to 11000 nM and “X (100-<1000 fold)”.
The like results for `CCOc1ccccc1Nc1ncc(C(=O)Nc2c(C)ccc(O)c2C)s1` [BAA-539, 2-((2-ethoxyphenyl)amino)-N-(3-hydroxy-2,6-dimethylphenyl)thiazole-5-carboxamide. TFA salt] were, in that order, 50 to 1000 nM, over 11000 nM and “X (100-<1000 fold)”.
Regarding `Cc1ccc(O)c(C)c1NC(=O)c1cnc(Nc2cc(C)n(CC(C)O)n2)s1` (stereo not drawn) [BAA-540, N-(3-hydroxy-2,6-dimethylphenyl)-2-((1-(2-hydroxypropyl)-5-methyl-1H-pyrazol-3-yl)amino)thiazole-5-carboxamide], the IC50 on Human PKMYT1 was under 50 nM; against WEE1 it was 1000 to 11000 nM. For the same compound, on WEE1, the “PKMYT1 vs. WEE1 selectivity” value is on record as “X (100-<1000 fold)”.
`COCCN(CCOC)C(=O)Cn1cc(C)c(Nc2ncc(C(=O)Nc3c(C)ccc(O)c3C)s2)n1` [BAA-542, 2-((1-(2-(bis(2-methoxyethyl)amino)-2-oxoethyl)-4-methyl-1H-pyrazol-3-yl)amino)-N-(3-hydroxy-2,6-dimethyl-phenyl)thiazole-5-carboxamide]: on Human PKMYT1, the IC50 was under 50 nM. On WEE1, the IC50 is over 11000 nM and the “PKMYT1 vs. WEE1 selectivity” value is reported as “X (100-<1000 fold)”.
The like results for `Cc1ccc(O)c(C)c1NC(=O)c1cnc(Nc2cc(C(=O)N3CCCC3)n(C)n2)s1` [BAA-544, N-(3-hydroxy-2,6-dimethylphenyl)-2-((1-methyl-5-(pyrrolidine-1-carbonyl)-1H-pyrazol-3-yl)amino)thiazole-5-carboxamide] were, in that order, 50 to 1000 nM, 1000 to 11000 nM and “W (10-<100 fold)”.
The like results for `CCN(CC)C(=O)c1cc(Nc2ncc(C(=O)Nc3c(C)ccc(O)c3C)s2)nn1C` [BAA-545, 2-((5-(diethylcarbamoyl)-1-methyl-1H-pyrazol-3-yl)amino)-N-(3-hydroxy-2,6-dimethylphenyl)thiazole-5-carboxamide] were, in that order, 50 to 1000 nM, 1000 to 11000 nM and “W (10-<100 fold)”.
The like results for `Cc1ccc(O)c(C)c1NC(=O)c1cnc(Nc2cn(C)nc2C(F)(F)F)s1` [BAA-548, N-(3-hydroxy-2,6-dimethylphenyl)-2-((1-methyl-3-(trifluoromethyl)-1H-pyrazol-4-yl)amino)thiazole-5-carboxamide] were, in that order, 50 to 1000 nM, over 11000 nM and “X (100-<1000 fold)”.
In turn, `Cc1ccc(O)c(C)c1NC(=O)c1cnc(Nc2nccn2C)s1` [BAA-552, N-(3-hydroxy-2,6-dimethylphenyl)-2-((1-methyl-1H-imidazol-2-yl)amino)thiazole-5-carboxamide] displayed an IC50 against Human PKMYT1 of 50 to 1000 nM. For the same compound, at WEE1, the IC50 is over 11000 nM and the “PKMYT1 vs. WEE1 selectivity” value is listed as “X (100-<1000 fold)”.
The like results for `CCN(CCS(C)(=O)=O)C(=O)Cn1cc(C)c(Nc2ncc(C(=O)Nc3c(C)ccc(O)c3C)s2)n1` [BAA-555, 2-((1-(2-(ethyl(2-(methylsulfonyl)ethyl)amino)-2-oxoethyl)-4-methyl-1H-pyrazol-3-yl)amino)-N-(3-hydroxy-2,6-dimethylphenyl)thiazole-5-carboxamide] were, in that order, under 50 nM, 1000 to 11000 nM and “Y (1000-5000 fold)”.
`Cc1ccc(O)c(C)c1NC(=O)c1cnc(Nc2cnn(CC(=O)N3CCCC3)c2C)s1` [BAA-556, N-(3-hydroxy-2,6-dimethylphenyl)-2-((5-methyl-1-(2-oxo-2-(pyrrolidin-1-yl)ethyl)-1H-pyrazol-4-yl)amino)thiazole-5-carboxamide] came in with an IC50 against Human PKMYT1 of 50 to 1000 nM. In addition, at WEE1, the IC50 was over 11000 nM and the “PKMYT1 vs. WEE1 selectivity” value is “X (100-<1000 fold)”.
The like results for `Cc1ccc(O)c(C)c1NC(=O)c1cnc(Nc2cn(CC(=O)N3CCCC3)nc2C)s1` [BAA-558, N-(3-hydroxy-2,6-dimethylphenyl)-2-((3-methyl-1-(2-oxo-2-(pyrrolidin-1-yl)ethyl)-1H-pyrazol-4-yl)amino)thiazole-5-carboxamide] were, in that order, 50 to 1000 nM, over 11000 nM and “Y (1000-5000 fold)”.
The compound `COc1cncnc1Nc1ncc(C(=O)Nc2c(C)ccc(O)c2C)s1` [BAA-559, N-(3-hydroxy-2,6-dimethylphenyl)-2-((5-methoxypyrimidin-4-yl)amino)thiazole-5-carboxamide] showed an IC50 against Human PKMYT1 of under 50 nM. Further, at WEE1, the half-maximal inhibitory concentration (IC50) is 1000 to 11000 nM and the “PKMYT1 vs. WEE1 selectivity” value is reported as “X (100-<1000 fold)”.
At Human PKMYT1, `COc1c(Cl)ncnc1Nc1ncc(C(=O)Nc2c(C)ccc(O)c2C)s1` [BAA-562, 2-((6-chloro-5-methoxypyrimidin-4-yl)amino)-N-(3-hydroxy-2,6-dimethylphenyl)thiazole-5-carboxamide] gave an IC50 of under 50 nM. Further, at WEE1, the IC50 was over 11000 nM and the “PKMYT1 vs. WEE1 selectivity” value is on record as “Y (1000-5000 fold)”.
The like results for `Cc1c(O)cc(Br)c(C)c1NC(=O)c1cnc(Nc2cc(C)n(C3CCS(=O)(=O)C3)n2)s1` (stereo not drawn) [BAA-563, N-(3-Bromo-5-hydroxy-2,6-dimethyl-phenyl)-2-[[1-(1,1-dioxothiolan-3-yl)-5-methyl-pyrazol-3-yl]amino]thiazole-5-carboxamide] were, in that order, 50 to 1000 nM, 1000 to 11000 nM and “W (10-<100 fold)”.
The like results for `Cc1ccc(O)c(C)c1NC(=O)c1cnc(Nc2cc(C)n(C3CCS(=O)(=O)C3)n2)s1` (stereo not drawn) [BAA-564, 2-[[1-(1,1-Dioxothiolan-3-yl)-5-methyl-pyrazol-3-yl]amino]-N-(3-hydroxy-2,6-dimethyl-phenyl)thiazole-5-carboxamide] were, in that order, 50 to 1000 nM, 1000 to 11000 nM and “W (10-<100 fold)”.
The like results for `Cc1ccnc(Nc2ncc(C(=O)Nc3c(C)ccc(O)c3C)s2)n1` [BAA-567, N-(3-hydroxy-2,6-dimethylphenyl)-2-((4-methylpyrimidin-2-yl)amino)thiazole-5-carboxamide] were, in that order, under 50 nM, over 11000 nM and “Y (1000-5000 fold)”.
Turning to `COc1cnc(Cl)nc1Nc1ncc(C(=O)Nc2c(C)ccc(O)c2C)s1` [BAA-568, 2-((2-chloro-5-methoxypyrimidin-4-yl)amino)-N-(3-hydroxy-2,6-dimethylphenyl)thiazole-5-carboxamide], on Human PKMYT1, the 50% inhibitory concentration (IC50) was under 50 nM. Also, at WEE1, the IC50 is over 11000 nM and the “PKMYT1 vs. WEE1 selectivity” value was “X (100-<1000 fold)”.
The like results for `Cc1cncc(Nc2ncc(C(=O)Nc3c(C)ccc(O)c3C)s2)n1` [BAA-570, N-(3-hydroxy-2,6-dimethylphenyl)-2-((6-methylpyrazin-2-yl)amino)thiazole-5-carboxamide] were, in that order, under 50 nM, over 11000 nM and “X (100-<1000 fold)”.
As to `CCn1cc(C#N)c(Nc2ncc(C(=O)Nc3c(C)ccc(O)c3C)s2)n1` [BAA-573, 2-((4-cyano-1-ethyl-1H-pyrazol-3-yl)amino)-N-(3-hydroxy-2,6-dimethylphenyl)thiazole-5-carboxamide], the figures for the IC50 against Human PKMYT1 and against WEE1 were under 50 nM and over 11000 nM, respectively. Besides, the “PKMYT1 vs. WEE1 selectivity” value at WEE1 is “Y (1000-5000 fold)”.
The like results for `Cc1ccc(O)c(C)c1NC(=O)c1cnc(Nc2cc(N3CCNCC3)ncn2)s1` [BAA-575, N-(3-Hydroxy-2,6-dimethylphenyl)-2-((6-(piperazin-1-yl)pyrimidin-4-yl)amino)thiazole-5-carboxamide] were, in that order, under 50 nM, 50 to 1000 nM and “W (10-<100 fold)”.
